This is an account of results in a melting point compilation (Tetko et al.; mined from patent text by program, amines drawn as free bases though some values may be those of a salt).

The melting point is the temperature of the solid-liquid transition.

SMILES strings stand for the structures. Bounds are passed on as bounds.

The molecule `CCOC(=O)c1cnc2c3ccccc3c(OC)cn2c1=O` registered a melting point of 190 to 193 °C. `COc1cc(C=CN(C)C)ccc1[N+](=O)[O-]` came in with a melting point of 57 to 58.5 °C.

For `CC(CCCl)C(=O)Nc1cc(C(C)(C)C)ns1` (centres undefined), the melting point was 144 to 146 °C. `Oc1ccc2nc(SCCC=C(F)F)oc2c1` gave a melting point of 73.6 to 75.4 °C. For the molecule `COC(=O)CNc1cccc(I)c1`, the melting point is 83 °C. `COc1ccc(C(N)CN)cc1` (centres undefined) had a melting point of 64 °C. In the case of `Nc1nc(-c2ccc(CCNC(=O)Cc3ccccc3)cc2)cs1` it was 176 to 177 °C; in that of `C=Cc1ccc(OCc2ccccc2)cc1`, 68 to 69 °C. As to `Cc1cccc2c(C(=O)C(=O)NC3=CC(=O)OC3)c(C)n(Cc3ccc(Cl)cc3)c12`, the melting point lay within 283 to 285 °C. Molecule `Cc1oc(-c2ccco2)nc1CCOc1ccc(N)cn1` returned a melting point of 88 to 90 °C. In the case of `FC(F)(F)c1nc(-c2ccc(NCc3ccccc3)cn2)no1` it was 81 to 84 °C; in that of `COc1cc(C#Cc2cc(OC)c(OC(C)C)cc2OC(=O)CI)ccc1OC(C)C`, 127 to 128 °C.

In turn, `COc1ccc2c(c1)N=C(N1CCN(C)CC1)c1cccc3c1N2CC3` registered a melting point of 152 to 155 °C. As to `CC(C)(C)[Si](C)(C)OCCn1cc([N+](=O)[O-])cn1`, the melting point lay within 63 to 64 °C. Consider `CSc1ccc2c(c1)N(CCCN1CCC(C(O)F)CC1c1ccccc1)c1ccccc1S2` (centres undefined), for which the melting point came out at 60 °C. In the case of `CS(=O)(=O)c1nc2ccccn2c1S(N)(=O)=O`, the melting point was in the range of 214 to 216 °C. Then `CCCCOc1c(CO)n(CC2CC2)c(=O)c2ccc(OCc3ccccc3)cc12`, with 96 to 97 °C. In the case of `CCCCCCCCCCCCCCCCCC1=NCCO1` it was 52 to 53 °C; in that of `COC(=O)C1=C(C)NC(C)=C(C(C)=O)C1c1ccccc1Cl` (centres undefined), 183 to 184 °C.

In turn, `C=CCOc1ccccc1-c1nc2c(CCC)nn(C)c2c(=O)[nH]1` registered a melting point of 116 to 119 °C. In the case of `N#CC1(C(C(=O)O)C(=O)O)CCCCC1` it was 99.9 °C; in that of `O=C(CCl)Nc1c(S)cccc1Cl`, 186 to 187 °C; in that of `COCc1cc(O)nc(C)n1`, 168 to 170 °C. As for `Cc1cc2ccccn2c1`, the melting point was 57 to 58 °C. Take `Nc1ncc(-c2cnc3[nH]c(=O)n(CC4CCCCC4)c3n2)cn1`: the melting point was over 250 °C. In the case of `CCN(CC)c1ccc(S(=O)(=O)N2CC(O)CC2=S)cc1` (centres undefined) it was 149 to 150 °C; in that of `CC1N=Cc2cc(Cl)ccc2-n2c(Cc3ccccc3)nnc21` (centres undefined), 195 to 197 °C; in that of `O=C(O)c1c[nH]c2cn[nH]c2c1=O`, over 330 °C. Turning to `CS(=O)(=O)Nc1ccc(C#Cc2cnn3c(C(F)(F)F)cc(-c4ccc(C(F)(F)F)cc4)nc23)cn1`, the melting point was in the range of 261 to 263 °C. In the case of `Oc1ccc(-c2nc3cccc(O)c3[nH]2)cc1C12CC3CC(CC(C3)C1)C2` it was 307 to 309 °C; in that of `O=C1COC(CCCOC(=O)c2ccccc2)(c2ccc(Cl)c(Cl)c2)CN1` (centres undefined), 92 °C. As to `CCOC(=O)CC(=O)Cn1nc(CC)c(Oc2cc(Cl)cc(Cl)c2)c1CC`, the melting point was 82 to 84 °C. For the molecule `Cc1cc(O)c2c3c(oc(=O)c2c1)C(=O)c1c(O)cccc1C3=O`, the melting point fell in the range of 236 to 238 °C. In the case of `CC(=O)Nc1ccc(C=CC2=NNC(=O)SC2)cc1` it was 235 to 240 °C. Molecule `COc1ccc(C=C2CCN(C(=O)c3nc4ccc(O)cc4[nH]3)CC2)cc1` registered a melting point of 208 °C. For `COC(=O)c1cc(-c2nc(CCl)c(C)o2)ccc1OS(C)(=O)=O`, the melting point lay in the range of 160 to 161 °C.

For the molecule `CN(C)c1ccc([N+](=O)[O-])c(CN)c1`, the melting point was 97 to 98 °C. `O=C(Nc1nccs1)C1=C(O)c2ccsc2S(=O)(=O)C1`: the melting point was 215 to 216 °C. Consider `Cc1cc(C)cc(C(=O)P2(=O)Oc3ccccc3-c3ccccc32)c1` (centres undefined), for which the melting point fell in the range of 120 to 124 °C.
